What all share (experiment): Recombinant cathepsin inhibition, gel-based competition with GB123 probe
Holding throughout (assay type): biochemical

In assay [1] the target is T1, Recombinant human cathepsin K (Homo sapiens, UniProt P43235).
T1 construct: made in house
T1 sequence (P43235 115-329): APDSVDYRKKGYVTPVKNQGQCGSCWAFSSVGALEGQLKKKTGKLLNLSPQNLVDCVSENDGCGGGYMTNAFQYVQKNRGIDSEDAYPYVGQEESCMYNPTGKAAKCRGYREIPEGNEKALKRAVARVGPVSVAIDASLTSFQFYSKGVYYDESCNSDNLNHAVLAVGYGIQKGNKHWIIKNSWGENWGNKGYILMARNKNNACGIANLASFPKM
The following applies: for loss of potency compared to GD20: diastereomers of GD20 with D amino acids. On the procedure:
(§1) In-gel fluorescence analysis was used to detect the residual activity of the cathepsins by applying pan-cathepsin probe GB123 to detect the stable enzyme–probe complex. This approach is used for testing inhibition and selectivity.[37],[41]
(§2) Recombinant human cathepsin L (0.5 μM), cathepsin B (0.5 μM), cathepsin K (0.5 μM), and cathepsin S (0.5 μM) were pretreated with different concentrations of inhibitors (GD compounds, odanacatib) for 1 h in reaction buffer (50 mM acetate, 2 mM dithiothreitol (DTT), and 5 mM MgCl2, pH 5.5) at 37 °C. GB123 (1 μM) was added and incubated with samples for 60 min at 37 °C.[37],[41] The reaction was stopped by the addition of sample buffer 4× (40% glycerol, 0.2 M Tris/HCl pH 6.8, 20% β-mercaptoethanol, 12% SDS, and 0.4 mg/mL bromophenol blue). Samples were then boiled, separated on a 12.5% SDS gel, and scanned for fluorescence by a Typhoon scanner FLA 9500 at excitation and emission wavelengths of 635 and 670 nm for GB123.
(§3) graphs were generated in GraphPad Prism software.

Assay [2] concerns the target T2, Recombinant human cathepsin B (Homo sapiens, UniProt P07858).
T2 construct: made in house
On the procedure: as §1, §2, §3

The target in assay [3] is T3, Recombinant human cathepsin L (Homo sapiens, UniProt P07711).
T3 construct: made in house
On the procedure: as §1, §2, §3

[4] abbreviates: Table S2, three independent competition gel-based experiments, read-out: CTSK (IC50).
Where [5] appears, read: Table S2, three independent competition gel-based experiments, read-out: CTSB (IC50).
Setting [6] is: Table S2, three independent competition gel-based experiments, read-out: CTSL (IC50).

Read-outs that look alike come from different tables or passages of the source.

T3 sequence (P07711 114-333): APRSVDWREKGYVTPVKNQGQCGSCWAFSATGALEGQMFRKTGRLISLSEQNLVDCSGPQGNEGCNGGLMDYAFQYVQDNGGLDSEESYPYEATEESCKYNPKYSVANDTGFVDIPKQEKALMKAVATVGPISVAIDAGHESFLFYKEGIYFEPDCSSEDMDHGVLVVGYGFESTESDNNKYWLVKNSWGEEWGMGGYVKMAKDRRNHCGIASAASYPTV

A word on the IC50: it is the concentration at which inhibition is half-maximal. On to `Cc1cccc(C)c1C(=O)OCC(=O)[C@H](CCCCN)NC(=O)[C@H](Cc1ccccc1)NC(=O)OCc1ccccc1` [GB111-NH2, reference compound], for which the IC50 was 4.4 ± 0.9 µM in assay [1] (setting [4]), 0.4 ± 0.06 µM in assay [2] (setting [5]) and 0.25 ± 0.04 µM in assay [3] (setting [6]).
As for `Cc1cccc(C)c1C(=O)OCC(=O)CNC(=O)[C@H](CC(C)(C)F)N[C@@H](c1ccc(-c2ccc(NC(=O)OC(C)(C)C)cc2)cc1)C(F)(F)F` [GD6], the IC50 in assay [1] (setting [4]) is 1.6 ± 0.35 µM; in assay [2] (setting [5]), 1.7 ± 0.35 µM; in assay [3] (setting [6]), over 5 µM.
In the case of `Cc1cccc(C)c1C(=O)OCC(=O)CNC(=O)[C@H](CC(C)C)N[C@@H](c1ccc(-c2ccc(S(C)(=O)=O)cc2)cc1)C(F)(F)F` [GD7], the IC50 in assay [1] (setting [4]) is 0.66 ± 0.01 µM; in assay [2] (setting [5]), 3.6 ± 0.03 µM; in assay [3] (setting [6]), over 5 µM.
On to `CC(C)C[C@H](N[C@@H](c1ccc(-c2ccc(S(C)(=O)=O)cc2)cc1)C(F)(F)F)C(=O)NCC(=O)COc1c(F)c(F)cc(F)c1F` [GD8], for which the results for the IC50 in assay [1] (setting [4]), in assay [2] (setting [5]) and in assay [3] (setting [6]) were 0.68 ± 0.08 µM, 2.2 ± 0.35 µM and 3.6 ± 0.04 µM, respectively.
Taken in the same sequence, the figures for `CC(C)C[C@H](N[C@@H](c1ccc(-c2ccc(S(C)(=O)=O)cc2)cc1)C(F)(F)F)C(=O)NCC(=O)CSc1c(F)c(F)cc(F)c1F` [GD9] were 0.5 ± 0.05 µM, 5.1 ± 0.55 µM and over 5 µM.
As for `NCCCC[C@H](NC(=O)[C@H](Cc1ccccc1)NC(=O)OCc1ccccc1)C(=O)CSc1c(F)c(F)cc(F)c1F` [GD10], the concentration for half-maximal inhibition (IC50) came out at 0.65 ± 0.01 µM in assay [1] (setting [4]), 0.66 ± 0.02 µM in assay [2] (setting [5]) and 0.19 ± 0.1 µM in assay [3] (setting [6]).
For the molecule `Cc1cccc(C)c1C(=O)OCC(=O)[C@H](CCCCN)NC(=O)[C@H](CC(C)C)NC(=O)CNC(=O)OCc1ccccc1` [GD12], the IC50 in assay [1] (setting [4]) came out at 0.8 ± 0.1 µM; in assay [2] (setting [5]) it was 1 ± 0.13 µM; in assay [3] (setting [6]), 1.6 ± 0.22 µM.
Take `Cc1cccc(C)c1C(=O)OCC(=O)[C@H](CCCCN)NC(=O)[C@@H]1CCCN1C(=O)CNC(=O)OCc1ccccc1` [GD13]: the IC50 was 3.6 ± 0.5 µM in assay [1] (Figure 1, gel-based GB123 competition, read-out: Activity [μM] CTSK (IC50)); 2.7 ± 0.35 µM in assay [1] (setting [4]); 1.95 ± 0.35 µM in assay [2] (Figure 1, gel-based GB123 competition, read-out: Activity [μM] CTSB (IC50)); 4 ± 0.15 µM in assay [2] (setting [5]); over 5 µM in assay [3] (setting [6]).
As to `NCCCC[C@H](NC(=O)[C@@H]1CCCN1C(=O)CNC(=O)OCc1ccccc1)C(=O)COc1c(F)c(F)cc(F)c1F` [GD14], the IC50 was 0.3 ± 0.03 µM in assay [1] (setting [4]), 0.8 ± 0.25 µM in assay [2] (setting [5]) and over 5 µM in assay [3] (setting [6]).
On to `NCCCC[C@H](NC(=O)[C@@H]1CCCN1C(=O)CNC(=O)OCc1ccccc1)C(=O)CSc1c(F)c(F)cc(F)c1F` [GD15], for which the IC50 in assay [1] (setting [4]) was 5.5 ± 1 µM; in assay [2] (setting [5]), over 5 µM; in assay [3] (Figure 1, gel-based GB123 competition, read-out: Activity [μM] CTSL (IC50)) it was over 5 µM; in assay [3] (setting [6]), 2 ± 0.15 µM.
For the molecule `Cc1cccc(C)c1C(=O)OCC(=O)CNC(=O)[C@@H]1CCCN1C(=O)CNC(=O)OCc1ccccc1` [GD16], the IC50 in assay [1] (setting [4]) was 1.8 ± 0.25 µM; in assay [2] (setting [5]), 2.8 ± 0.6 µM; in assay [3] (setting [6]), over 5 µM.
As to `O=C(CNC(=O)[C@@H]1CCCN1C(=O)CNC(=O)OCc1ccccc1)CSc1c(F)c(F)cc(F)c1F` [GD17], the IC50 in assay [1] (setting [4]) is 1.2 ± 0.11 µM; in assay [2] (setting [5]) it was over 5 µM; in assay [3] (setting [6]) it was over 5 µM.
As to `CC(C)C[C@H](N[C@@H](c1ccc(-c2ccc(NC(=O)OC(C)(C)C)cc2)cc1)C(F)(F)F)C(=O)NCC(=O)COC(=O)[C@@H]1CCCN1C(=O)[C@H](CC(C)C)NC(=O)OCC1c2ccccc2-c2ccccc21` [GD26], the IC50 in assay [1] (setting [4]) was 1.4 ± 0.2 µM; in assay [2] (setting [5]), 6 ± 1.5 µM; in assay [3] (setting [6]) it was over 5 µM.
`CC(C)C[C@H](N[C@@H](c1ccc(-c2ccc(S(C)(=O)=O)cc2)cc1)C(F)(F)F)C(=O)NCC(=O)COC(=O)CNC(=O)OCC1c2ccccc2-c2ccccc21` [GD27]: the figures for the IC50 in assay [1] (setting [4]), in assay [2] (setting [5]) and in assay [3] (setting [6]) were 1 ± 0.07 µM, over 5 µM and over 5 µM, respectively.
On to `CC(C)C[C@H](NC(=O)OCC1c2ccccc2-c2ccccc21)C(=O)N1CCC[C@H]1C(=O)OCC(=O)CNC(=O)[C@H](CC1CCCCC1)N[C@@H](c1ccc(-c2ccc(S(C)(=O)=O)cc2)cc1)C(F)(F)F` [GD28], for which the IC50 in assay [1] (setting [4]), in assay [2] (setting [5]) and in assay [3] (setting [6]) was over 5 µM throughout.
`CC(C)C[C@H](NC(=O)OCC1c2ccccc2-c2ccccc21)C(=O)N1CCC[C@H]1C(=O)OCC(=O)CNC(=O)[C@H](CCCCNC(=O)OC(C)(C)C)N[C@@H](c1ccc(-c2ccc(S(C)(=O)=O)cc2)cc1)C(F)(F)F` [GD29]: the IC50 is over 5 µM in assay [1] (setting [4]), over 5 µM in assay [2] (setting [5]) and 1.6 ± 0.5 µM in assay [3] (setting [6]).
For `CC(C)C[C@H](N[C@@H](c1ccc(-c2ccc(S(=O)(=O)NC(=O)OC(C)(C)C)cc2)cc1)C(F)(F)F)C(=O)NCC(=O)COC(=O)[C@@H]1CCCN1C(=O)[C@H](CC(C)C)NC(=O)OCC1c2ccccc2-c2ccccc21` [GD31], the IC50 in assay [1] (setting [4]) was 0.9 ± 0.1 µM; in assay [2] (setting [5]) it was 0.24 ± 0.1 µM; in assay [3] (setting [6]), over 20 µM.
The corresponding values for `C#CCNC(=O)[C@H](CC(C)C)N[C@@H](c1ccc(-c2ccc(S(=O)(=O)NC(=O)OC(C)(C)C)cc2)cc1)C(F)(F)F` [GD33] are over 20 µM, over 20 µM and 4.4 ± 0.8 µM.
On to `CC(C)C[C@H](N[C@@H](c1ccc(-c2ccc(CCNC(=O)OC(C)(C)C)cc2)cc1)C(F)(F)F)C(=O)NCC(=O)COC(=O)[C@@H]1CCCN1C(=O)[C@H](CC(C)C)NC(=O)OCC1c2ccccc2-c2ccccc21` [GD34], for which the IC50 in assay [1] (setting [4]) was 0.9 ± 0.06 µM; in assay [2] (setting [5]), 5 ± 0.1 µM; in assay [3] (setting [6]), over 5 µM.
For the molecule `CC(C)C[C@H](N[C@H](c1ccc(-c2ccc(S(C)(=O)=O)cc2)cc1)C(F)(F)F)C(=O)NCC(=O)COC(=O)[C@@H]1CCCN1C(=O)[C@H](CC(C)C)NC(=O)OCC1c2ccccc2-c2ccccc21` [GD35], the IC50 in assay [1] (setting [4]) was 3.5 ± 0.5 µM. Also, the “loss of potency compared to GD20” value in assay [1] was 4–9 times.
Consider `CC(C)C[C@H](NC(=O)OCC1c2ccccc2-c2ccccc21)C(=O)N1CCC[C@H]1C(=O)OCC(=O)CNC(=O)[C@@H](CC(C)C)N[C@@H](c1ccc(-c2ccc(S(C)(=O)=O)cc2)cc1)C(F)(F)F` [GD39], for which the IC50 in assay [1] (setting [4]) is 3.9 ± 0.7 µM. In assay [1], the “loss of potency compared to GD20” value was 4–9 times.
Taken in the same sequence, the figures for `CC(C)C[C@H](NC(=O)OCC1c2ccccc2-c2ccccc21)C(=O)N1CCC[C@H]1C(=O)OCC(=O)CNC(=O)[C@@H](CC(C)C)N[C@H](c1ccc(-c2ccc(S(C)(=O)=O)cc2)cc1)C(F)(F)F` [GD40] were 3.5 ± 0.9 µM and 4–9 times.

These data come from publication PMC11938014, “Development and Application of Small Molecule–Peptide Conjugates as Cathepsin K-Specific Covalent Irreversible Inhibitors in Human Osteoclast and Lung Cancer” (JACS Au, 2025).
